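Values below derive from 48-hour exposures of cells grown in 96-well plates, with endpoints linearly interpolated between the two concentrations bracketing the appropriate inhibition level. TGI is the concentration that stops growth completely.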

Common to all, as to experiment: NCI-60 cell line screen, 48 h
Test [1] relates to MOLT-4 leukemia.
Test [2] has as its system HCC-2998 colon.
Test [3] deals with PC-3 prostate.
Test [4] relates to SF-268 CNS.
The test system of test [5] is UACC-62 melanoma.
For test [6], the system named is HOP-62 NSCLC.
Test [7] relates to MDA-N.
Test [8] deals with UACC-257 melanoma.
Test [9] has as its system TK-10 renal.
Test [10] has as its system LOX IMVI melanoma.

For `CC1=C(C(=O)OC(C)(C)C)C(c2ccc([N+](=O)[O-])cc2)C(C(=O)OC(C)(C)C)=C(C)N1`, the TGI in test [1] stood at 41.6 µM; in test [2] it was 27.2 µM; in test [3], 45.1 µM; in test [4], 56.4 µM; in test [5], 34.8 µM; in test [6], 40.8 µM. Further, the TGI worked out at 48.6 µM in test [7], 40.6 µM in test [8], 38.1 µM in test [9] and 32.9 µM in test [10].

As for `N#Cc1c(N)n(-c2nc3ccccc3s2)c(=O)c2cc([N+](=O)[O-])ccc12`, the TGI in test [1] was 19.9 µM; in test [2], 41.2 µM; in test [3], greater than 52.1 µM; in [4], greater than 49.6 µM; in test [5], 66.8 µM; in test [6], 22 µM. For the same compound, the TGI was greater than 82.7 µM in test [7], 69.3 µM in test [8], greater than 100 µM in [9] and 19.7 µM in [10].

Turning to `CO/C(N)=C(\C#N)N=Cc1cccs1`, the TGI in test [1], in test [2], in test [3], in test [4], in test [5] and in [6] was greater than 100 µM in each case. The TGI in test [7] is 90.1 µM; in [8], greater than 100 µM; in test [9] it was greater than 100 µM; in test [10] it was greater than 100 µM.

For the compound `CC(C)=C[C@@H]1C[C@H](C)[C@H]2CC[C@H](C)[C@H]3C(=O)C(O)=C(C)C(=O)[C@]123`, the TGI in [1], in [2], in test [3], in test [4], in test [5] and in test [6] was greater than 100 µM in each case. Moreover, the TGI in test [7], in [8], in test [9] and in [10] was greater than 100 µM in each case.

For the compound `CC(=O)Oc1c(OC(C)C)cc(=O)n2ccsc12`, the TGI in test [1], in test [2], in test [3], in test [4], in [5] and in test [6] was greater than 100 µM each time. The TGI in [7], in [8], in test [9] and in [10] was greater than 100 µM throughout.

Take `Nc1c(/C=C/c2cc3cc(C4=NCCN4)ccc3o2)[nH]c2cc(C3=NCCN3)ccc12`: the TGI is greater than 100 µM in test [1]; greater than 100 µM in [2]; greater than 100 µM in test [3]; greater than 100 µM in test [4]; greater than 100 µM in [5]; 96 µM in test [6]. For the same compound, the TGI is greater than 100 µM in test [7], greater than 100 µM in test [8], 67 µM in [9] and greater than 100 µM in [10].

Turning to `CCOP(=O)(OCC)/C(C#N)=C(\C)c1ccco1`, the TGI in test [1], in test [2], in [3], in test [4], in test [5] and in test [6] was greater than 10 µM throughout. Also, the TGI in [7], in test [8], in test [9] and in test [10] was greater than 10 µM in each case.

In the case of `O=C1C[C@@]23CCC4(CC2=CCC[C@H]3O1)OCCO4`, the TGI in [1], in test [2], in test [3], in [4], in [5] and in test [6] was greater than 100 µM each time. For the same compound, the TGI in test [7], in test [8], in test [9] and in test [10] was greater than 100 µM throughout.

Regarding `CCN(CC)CCCNc1nnc(C)c2[nH]c3ccccc3c12`, the TGI in test [1] is greater than 100 µM; in test [2], 22.2 µM; in test [3], 45.2 µM; in test [4], 34.7 µM; in [5] it was 27.9 µM; in [6], 35.5 µM. The TGI in test [7] is 29.2 µM; in test [8], 31.8 µM; in test [9], 67.2 µM; in [10], 30.9 µM.

For the compound `O=P1(C(O)c2ccccc2)N(Cc2ccccc2)[C@@H]2CCCC[C@H]2N1Cc1ccccc1` (stereo not given in full), the TGI in [1] was 49.1 µM; in test [2] it was 50.4 µM; in [3] it was 89.1 µM; in test [4] it was 97.1 µM; in test [5], greater than 100 µM; in [6], greater than 100 µM. Besides, the TGI in [7] was greater than 100 µM; in test [8] it was 56 µM; in [9], greater than 100 µM; in [10], 32.1 µM.

For the compound `CC(=O)CC(=O)N1CCOC1=O`, the TGI in test [1], in test [2], in test [3], in [4], in test [5] and in test [6] was greater than 10 µM throughout. For the same compound, the TGI in test [7], in [8], in test [9] and in [10] was greater than 10 µM each time.

Take `CC(C)(C)OC(=O)NCCCCC1NC(=O)[C@@H]2Cc3c([nH]c4ccccc34)C(c3ccccc3)N2C1=O` (stereo not given in full): the TGI in [1] is 60.2 µM; in [2], 40.3 µM; in test [3] it was greater than 100 µM; in test [4], greater than 100 µM; in [5], 95.6 µM; in test [6] it was greater than 100 µM. Moreover, the TGI is greater than 100 µM in test [7], greater than 100 µM in test [8], greater than 100 µM in [9] and 56.4 µM in test [10].

These data come from PubChem BioAssay (NCI).
